Consider 17 compounds from PubChem BioAssay (NCI).

Common to all, as to test: inhibition of tumour cell growth, NCI panel, 48 h
The subject of assay [1] is DLD-1 colon.
For assay [2], the system named is DMS 114 small cell lung.
Assay [3] concerns DMS 273 small cell lung.
Assay [4] has as its system M19-MEL melanoma.
Assay [5] relates to MCF7 breast.
Assay [6] deals with MDA-MB-231 breast.
Assay [7] has as its system MDA-MB-435.
In assay [8] the test system is NCI/ADR-RES ovarian.
Assay [9] has as its system BT-549 breast.

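All cell lines were grown in 96-well plates and treated with compound for 48 hours. The concentration for 50% growth inhibition is given as GI50. The concentration for full growth arrest is given as TGI.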

As to `CCOC(=O)C(NC(=O)c1[nH]cnc1/N=N/N(C)C)C(C)C` (stereo not given), the TGI in assay [1], in [2], in [3] and in assay [4] was above 100 µM throughout.

With `Cc1ccc(NC(=O)CC(=O)N2N=C(N(CCC#N)c3cccc(C)c3)CC2c2ccccc2)cc1` (stereo not given), the TGI in assay [1], in assay [2], in assay [3] and in assay [4] was above 100 µM each time.

Regarding `CC1=NN(C(=O)c2ccccc2O)C(=O)/C1=C/c1cccc([N+](=O)[O-])c1`, the TGI in assay [1] is above 100 µM; in assay [2], 21.4 µM; in assay [5] it was above 100 µM; in [6] it was above 100 µM; in assay [7], above 100 µM; in [8], above 100 µM.

For `CC(=O)OC1CC2C(=O)C(=O)C1(C)C2(C)C` (stereo not given), the TGI in assay [9], in assay [5], in assay [6], in [7] and in [8] was above 100 µM each time.

For `COc1cc(NC(=O)Nc2cnc(Nc3ccc(N4CCOCC4)cc3)nc2Oc2cccc(OC)c2)cc(OC)c1`, the GI50 in assay [9] was 1.49 µM; in [5] it was 1.92 µM; in [6], 1.41 µM; in assay [7] it was 1.99 µM; in assay [8], 4.04 µM. The TGI in assay [9] is 5.74 µM; in assay [5], 18.8 µM; in assay [6], 4.7 µM; in assay [7], 11.5 µM; in [8], above 50 µM.

Take `CC1COCC(C)N1C1=C(Cl)C(=O)c2ccccc2C1=O` (stereo not given): the GI50 in [9] was 11.7 µM; in assay [5], 1.67 µM; in assay [6], 2.46 µM; in [7] it was 1.35 µM; in assay [8], 3.36 µM. For the same compound, the TGI in [9] was 24 µM; in assay [5] it was 3.76 µM; in assay [6], 11 µM; in assay [7] it was 2.73 µM; in [8], 14.1 µM.

For `O=c1[nH]c2ccccc2n1-c1n[nH]c2ccccc12`, the GI50 was 30.5 µM in assay [9]; 20.1 µM in [5]; 22.9 µM in assay [6]; 23.7 µM in assay [7]; 30.3 µM in assay [8]. The TGI in [9] is above 100 µM; in assay [5], above 100 µM; in assay [6], above 100 µM; in assay [7], 57.4 µM; in [8], above 100 µM.

Turning to `Nc1ccc2c(c1)c(N)nn2C(=O)Nc1ccc(Cc2ccccc2)cc1`, the GI50 is 14.6 µM in assay [9]; 6.92 µM in [5]; 7.74 µM in [6]; 7.36 µM in assay [7]; 17.4 µM in assay [8]. In addition, the TGI is 33.5 µM in [9]; 26.5 µM in assay [5]; 22.7 µM in assay [6]; 23.8 µM in assay [7]; 75.1 µM in assay [8].

On to `CCOc1cc(-c2ccc[nH]2)[nH]c1/C=C1\N=C(C)C(C(=O)OC)=C1C`, for which the GI50 in [9] is 0.0451 µM; in [5] it was 0.0369 µM; in assay [6], 0.0171 µM; in assay [7], 0.0325 µM; in [8] it was 0.0432 µM. Further, the TGI is 1.92 µM in [9]; 0.467 µM in assay [5]; 0.279 µM in [6]; 1.05 µM in assay [7]; 1.47 µM in assay [8].

As for `Cc1nc(N)nc2ccccc12`, the TGI in [9], in [5], in [6], in assay [7] and in assay [8] was above 100 µM each time.

Take `N#CC1C=Cc2ccccc2N1C(=O)Oc1ccccc1` (stereo not given): the TGI in [9] was above 100 µM; in assay [5], above 100 µM; in [6], above 100 µM; in assay [7] it was 58.7 µM; in assay [8], above 100 µM.

In the case of `COc1nc(NC2OC(COC(C)=O)C(OC(C)=O)C(OC(C)=O)C2OC(C)=O)c(-c2csc(N)n2)c(=O)n1C` (stereo not given), the TGI in assay [1], in [2] and in assay [4] was above 100 µM in each case.

Consider `Cc1cc(Cl)ccc1NS(=O)(=O)c1ccc(-c2cnc(C3CC3)o2)cc1`, for which the GI50 was 1.32 µM in assay [9]; 0.0619 µM in [5]; 0.94 µM in [6]; 0.0838 µM in assay [7]; 0.178 µM in assay [8]. The TGI in assay [9] was found to be 15.5 µM; in assay [5], 14.7 µM; in assay [6] it was 20 µM; in [7] it was 15.5 µM; in [8], 13 µM.

Take `C/C=C1\C(=O)OC2CCN3CCC(COC(=O)C(C)(O)C(C)C1O)C23` (stereo not given): the TGI in assay [9], in assay [5], in assay [6], in assay [7] and in assay [8] was above 100 µM each time.

With `CCCCCCCCCCCCCc1nn[nH]n1`, the values for the TGI in assay [1], in [2] and in assay [4] were 31.8 µM, 38.4 µM and 36.8 µM, respectively.

Consider `C=[CH][Sn]([CH]=C)([O]c1cccc2cccnc12)[O]c1cccc2cccnc12`, for which the GI50 is 2.78 µM in [9]; 3.11 µM in assay [5]; 11.9 µM in assay [6]; 7.86 µM in [7]; 9.94 µM in assay [8]. Also, the TGI was 31.5 µM in [9]; 12.6 µM in assay [5]; 36.9 µM in assay [6]; 40.8 µM in assay [7]; above 100 µM in assay [8].

With `CC1(C)OC2C(COS(N)(=O)=O)SC(n3cnc4cncnc43)C2O1` (stereo not given), the GI50 in assay [9], in assay [5], in assay [6], in assay [7] and in [8] was above 100 µM each time. Moreover, the TGI in assay [9], in assay [5], in [6], in assay [7] and in [8] was above 100 µM in each case.
